Test results taken from PubChem BioAssay AID2060497 (Molecular Pharmacology Branch, DTP, NCI, 2025).

Test system: 317291-083-R-J1-PDC complex spheroids, viability
Assay: Anticancer human tumor 317291-083-R-J1-PDC patient-derived soft tissue sarcoma cell line growth inhibition [GQUAD]
Conditions: for IC50: curve of first compound; for viability, T/C: stronger effect = lower value; active = viability on the fitted dose curve at most 10% of control; inactive = the rest
In short: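 Viability of tumor cells grown as complex spheroids with endothelial and stromal cells, exposed to drug combinations. Top concentration at or near clinical Cmax (else 10 microM), diluted in half-log increments.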

[1] = second compound 0.0316 µM, first compound 0.0316 µM
[2] = second compound 0.0316 µM, first compound 0.1 µM
[3] = second compound 0.0316 µM, first compound 0.316 µM
[4] = second compound 0.0316 µM, first compound 1 µM
[5] = second compound 0.0316 µM, first compound 3.16 µM
[6] = second compound 0.0316 µM, first compound 10 µM
[7] = second compound 0.1 µM, first compound 0.0316 µM
[8] = second compound 0.1 µM, first compound 0.1 µM
[9] = second compound 0.1 µM, first compound 0.316 µM
[10] = second compound 0.1 µM, first compound 1 µM
[11] = second compound 0.1 µM, first compound 3.16 µM
[12] = second compound 0.1 µM, first compound 10 µM
[13] = second compound 0.316 µM, first compound 0.0316 µM
[14] = second compound 0.316 µM, first compound 0.1 µM
[15] = second compound 0.316 µM, first compound 0.316 µM
[16] = second compound 0.316 µM, first compound 1 µM
[17] = second compound 0.316 µM, first compound 3.16 µM
[18] = second compound 0.316 µM, first compound 10 µM
[19] = second compound 1 µM, first compound 0.0316 µM
[20] = second compound 1 µM, first compound 0.1 µM
[21] = second compound 1 µM, first compound 0.316 µM
[22] = second compound 1 µM, first compound 1 µM
[23] = second compound 1 µM, first compound 3.16 µM
[24] = second compound 1 µM, first compound 10 µM
[25] = second compound 3.16 µM, first compound 0.0316 µM
[26] = second compound 3.16 µM, first compound 0.1 µM
[27] = second compound 3.16 µM, first compound 0.316 µM
[28] = second compound 3.16 µM, first compound 1 µM
[29] = second compound 3.16 µM, first compound 3.16 µM
[30] = second compound 3.16 µM, first compound 10 µM
[31] = second compound 10 µM, first compound 0.0316 µM
[32] = second compound 10 µM, first compound 0.1 µM
[33] = second compound 10 µM, first compound 0.316 µM
[34] = second compound 10 µM, first compound 1 µM
[35] = second compound 10 µM, first compound 3.16 µM
[36] = second compound 10 µM, first compound 10 µM
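Also: spheroids exposed to compounds for one week before readout.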
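For viability, T/C in this document: percent viability relative to DMSO vehicle wells taken as 100%.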

CC(C)n1c(=O)n(C)c2cnc3cc(F)c(-c4ccc(OCCCN5CCCCC5)nc4)cc3c21 + Cc1cnc(CNC(=O)c2c(=O)c3ccc(N4CCCN(C)CC4)nc3n3c2sc2ccccc23)cn1
< 31.6 nM: IC50 (second compound 0.1 µM) | IC50 (second compound 0.316 µM) | IC50 (second compound 1 µM) | IC50 (second compound 3.16 µM) | IC50 (second compound 10 µM)
858 nM: IC50 (second compound 0.0316 µM)
inactive: viability, T/C [1] 57.3% | viability, T/C [2] 51.3% | viability, T/C [3] 45.1% | viability, T/C [4] 29.2% | viability, T/C [5] 73.3% | viability, T/C [6] 44.5% | viability, T/C [7] 37.1% | viability, T/C [8] 37% | viability, T/C [9] 24.6% | viability, T/C [10] 25.9% | viability, T/C [11] 23.9% | viability, T/C [12] 25.3% | viability, T/C [13] 21.2% | viability, T/C [14] 25.9% | viability, T/C [15] 25.4% | viability, T/C [16] 22.1% | viability, T/C [17] 33% | viability, T/C [18] 17.5% | viability, T/C [19] 18.2% | viability, T/C [20] 22.1% | viability, T/C [21] 23.5% | viability, T/C [22] 19.4% | viability, T/C [23] 21.9% | viability, T/C [24] 21.5% | viability, T/C [25] 11.4% | viability, T/C [26] 13.9% | viability, T/C [27] 29.8% | viability, T/C [28] 10.7% | viability, T/C [29] 13.1% | viability, T/C [30] 11.4% | viability, T/C [31] 26.2% | viability, T/C [32] 16.6% | viability, T/C [33] 10.7% | viability, T/C [34] 21.9% | viability, T/C [35] 25.5% | viability, T/C [36] 23.4%

CC1COCCN1c1cc(C2(O)CC3CCC(C2)O3)c2cnn(-c3ccn[nH]3)c2n1 (stereo unspecified) + Cc1cnc(CNC(=O)c2c(=O)c3ccc(N4CCCN(C)CC4)nc3n3c2sc2ccccc23)cn1
inactive: viability, T/C [1] 32.1% | viability, T/C [2] 22.9% | viability, T/C [3] 11.1% | viability, T/C [4] 10.5% | viability, T/C [7] 25.9% | viability, T/C [8] 22.6% | viability, T/C [9] 10.6% | viability, T/C [10] 11.6% | viability, T/C [11] 28.6% | viability, T/C [12] 2.82% | viability, T/C [13] 18.4% | viability, T/C [14] 16.2% | viability, T/C [15] 26.7% | viability, T/C [16] 11.9% | viability, T/C [19] 25.6% | viability, T/C [20] 18.5% | viability, T/C [21] 12.9% | viability, T/C [22] 12.1% | viability, T/C [25] 14.8% | viability, T/C [26] 14.6% | viability, T/C [27] 11.1% | viability, T/C [28] 12.7% | viability, T/C [31] 12.7% | viability, T/C [32] 9.14% | viability, T/C [33] 16.9% | viability, T/C [34] 24.7% | viability, T/C [35] 12.1% | viability, T/C [36] 2.17%
< 31.6 nM: IC50 (second compound 0.0316 µM) | IC50 (second compound 0.1 µM) | IC50 (second compound 0.316 µM) | IC50 (second compound 1 µM) | IC50 (second compound 3.16 µM) | IC50 (second compound 10 µM)
active: viability, T/C [5] 13% | viability, T/C [6] 3.33% | viability, T/C [17] 11.1% | viability, T/C [18] 2.89% | viability, T/C [23] 11.7% | viability, T/C [24] 5.12% | viability, T/C [29] 15.6% | viability, T/C [30] 0.73%

CCc1c2c(nc3ccc(O)cc13)-c1cc3c(c(=O)n1C2)COC(=O)[C@]3(O)CC + Cc1cnc(CNC(=O)c2c(=O)c3ccc(N4CCCN(C)CC4)nc3n3c2sc2ccccc23)cn1
< 0.999 nM: IC50 (second compound 0.0316 µM) | IC50 (second compound 0.1 µM) | IC50 (second compound 0.316 µM) | IC50 (second compound 1 µM) | IC50 (second compound 3.16 µM) | IC50 (second compound 10 µM)
inactive: viability, T/C (second compound 0.0316 µM, first compound 0.000999 µM) 39.3% | viability, T/C (second compound 0.0316 µM, first compound 0.00316 µM) 18% | viability, T/C (second compound 0.0316 µM, first compound 0.00999 µM) 10.7% | viability, T/C (second compound 0.1 µM, first compound 0.000999 µM) 33.9% | viability, T/C (second compound 0.1 µM, first compound 0.00316 µM) 16% | viability, T/C (second compound 0.1 µM, first compound 0.00999 µM) 11.3% | viability, T/C (second compound 0.316 µM, first compound 0.000999 µM) 20.6% | viability, T/C (second compound 0.316 µM, first compound 0.00316 µM) 21.5% | viability, T/C (second compound 0.316 µM, first compound 0.00999 µM) 15.5% | viability, T/C [13] 9.82% | viability, T/C (second compound 1 µM, first compound 0.000999 µM) 21.9% | viability, T/C (second compound 1 µM, first compound 0.00316 µM) 25.9% | viability, T/C (second compound 1 µM, first compound 0.00999 µM) 11.1% | viability, T/C [19] 9.26% | viability, T/C (second compound 3.16 µM, first compound 0.000999 µM) 26.1% | viability, T/C (second compound 3.16 µM, first compound 0.00316 µM) 14.9% | viability, T/C (second compound 10 µM, first compound 0.000999 µM) 15.2% | viability, T/C (second compound 10 µM, first compound 0.00316 µM) 7.77%
active: viability, T/C [1] 7.46% | viability, T/C (second compound 0.0316 µM, first compound 0.0999 µM) 9.54% | viability, T/C [3] 5.6% | viability, T/C [7] 13.6% | viability, T/C (second compound 0.1 µM, first compound 0.0999 µM) 5.29% | viability, T/C [9] 3.08% | viability, T/C (second compound 0.316 µM, first compound 0.0999 µM) 7.3% | viability, T/C [15] 2.31% | viability, T/C (second compound 1 µM, first compound 0.0999 µM) 12.2% | viability, T/C [21] 1.09% | viability, T/C (second compound 3.16 µM, first compound 0.00999 µM) 9.17% | viability, T/C [25] 2.26% | viability, T/C (second compound 3.16 µM, first compound 0.0999 µM) 2.54% | viability, T/C [27] 0.17% | viability, T/C (second compound 10 µM, first compound 0.00999 µM) 8.64% | viability, T/C [31] 8.52% | viability, T/C (second compound 10 µM, first compound 0.0999 µM) 6.98% | viability, T/C [33] 0.18%
